Broadly, the pIC50 is the negative decadic logarithm of the IC50, by convention in mol/L.

This note sets out measurements from patent US9499553B2 (CHUGAI SEIYAKU KABUSHIKI KAISHA, priority 2013, dated 2016).

The target of the assay is T1, human PiT-1 (Homo sapiens, UniProt Q8WUM9).
T1 construct: expressed in transfected cells; host or cells: CHO cells
T1 sequence (Q8WUM9 1-679): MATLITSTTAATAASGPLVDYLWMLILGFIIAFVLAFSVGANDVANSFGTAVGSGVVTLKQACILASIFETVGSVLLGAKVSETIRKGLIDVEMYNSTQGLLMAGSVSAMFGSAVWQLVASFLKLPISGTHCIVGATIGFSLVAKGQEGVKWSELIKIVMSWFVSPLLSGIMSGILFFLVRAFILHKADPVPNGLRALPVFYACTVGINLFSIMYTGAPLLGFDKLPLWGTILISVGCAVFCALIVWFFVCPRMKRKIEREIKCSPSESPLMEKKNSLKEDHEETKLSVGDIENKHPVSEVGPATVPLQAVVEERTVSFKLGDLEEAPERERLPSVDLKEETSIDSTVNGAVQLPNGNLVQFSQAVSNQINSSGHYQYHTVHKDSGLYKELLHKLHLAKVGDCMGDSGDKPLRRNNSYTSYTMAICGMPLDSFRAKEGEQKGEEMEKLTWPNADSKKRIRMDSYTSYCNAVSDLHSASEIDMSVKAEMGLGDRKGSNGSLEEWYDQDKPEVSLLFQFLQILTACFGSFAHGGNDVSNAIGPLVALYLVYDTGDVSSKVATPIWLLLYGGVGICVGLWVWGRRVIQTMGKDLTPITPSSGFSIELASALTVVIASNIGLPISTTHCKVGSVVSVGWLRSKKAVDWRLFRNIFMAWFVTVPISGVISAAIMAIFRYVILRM
As to the kind of experiment: Inhibitory effect on 33PO4 uptake into human PiT-1-expressing CHO cells. The format is cell-based. The conditions noted are these: compound 0.24, 1.2, 6 or 30 μM, pH 6.5, read-out: IC50 against 33PO4 uptake into human PiT-1-expressing cells. Put shortly:
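CHO cells transiently transfected with human PiT-1 or empty vector were exposed to compound, then to 33PO4 at room temperature and washed ice-cold; uptake counted by scintillation. Inhibition computed on PiT-1-specific uptake (PiT-1 minus vector cells) relative to DMSO wells.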

pIC50: −log10 of the molar value.

With `COCCN(C)CCOc1ccc(CN2C(=O)C(C(=O)Nc3ccc(C(F)(F)F)cc3-c3cc(C(F)(F)F)ncn3)=C(O)C3(CCCC3)N2C)c(F)c1F` [Example 14, 7-[[2,3-Difluoro-4-[2-[2-methoxyethyl(methyl)amino]ethoxy]phenyl]methyl]-10-hydroxy-6-methyl-8-oxo-N-[4-(trifluoromethyl)-2-[6-(trifluoromethyl)pyrimidin-4-yl]phenyl]-6,7-diazaspiro[4.5]dec-9-ene-9-carboxamide], the pIC50 is 5.66.
